PMC7849011, “Defining the Antimalarial Activity of Cipargamin in Healthy Volunteers Experimentally Infected with Blood-Stage Plasmodium falciparum” (Antimicrobial Agents and Chemotherapy, 2021)
In brackets after ≈: the same amount, converted by molar mass. Entries after “also recorded” stand apart in the source; their conditions may differ. Read-outs that look alike come from different tables or passages of the source.

Legend:
P. falciparum 3D7 = assay: Induced blood-stage malaria (IBSM) volunteer infection study: parasitemia by 18S rRNA qPCR; type: in vivo, Plasmodium falciparum; conditions: for Log10PRR48 (95%CI) / Parasite Clearance Half-Life (95%CI): 10 mg
Text: A single cohort of eight subjects was inoculated intravenously with P. falciparum 3D7-infected human erythrocytes (approximately 1,800 viable parasites) as previously described ([24]). Parasite growth was monitored by collecting blood samples and performing quantitative PCR (qPCR) targeting the gene encoding P. falciparum 18S rRNA ([25]). […] The dose of cipargamin selected was predicted to be subtherapeutic based on preclinical modeling ([7]) and pharmacokinetic data obtained in previous clinical studies ([8]) and thus chosen to facilitate modeling to estimate the pharmacokinetic/pharmacodynamic relationship. To monitor total parasitemia, blood samples were collected for 18S rRNA qPCR before inoculation, on day 3, twice daily on days 4 to 6, pretreatment on day 7, and 4, 8, 12, 16, 24, 30, and 36 h posttreatment, twice daily from day 9 to day 11, and every 1 to 3 days until day 35. Blood samples for gametocytemia measurements were collected on day 11, every 1 to 3 days between day 15 and day 29, and on day 35. […] Analyses were performed in R version 3.3.0. The PRR and parasite clearance half-life were estimated using the slope of the optimal fit for the log-linear relationship of the parasitemia decay as described previously ([27]).

clinical = conditions: human, in vivo, 10 mg
Experimental: Blood samples were collected at the following time points after dosing to determine the cipargamin plasma concentration: 1, 2, 3, 4, 8, 12, 16, 24, 36, 48, 72, 96, and 120 h. Samples were analyzed by liquid chromatography-tandem mass spectrometry as previously described ([8]). Noncompartmental PK analysis was performed using WinNonlin Pro version 6.4.

[1] = test system: P. falciparum female gametocytes; assay: Gametocytemia by pfs25 qRT-PCR; type: in vivo, Plasmodium falciparum
Experimental: A single oral dose of 960 mg piperaquine (PCI Pharma Services, United Kingdom) was administered to subjects in response to parasite regrowth. The purpose of piperaquine treatment was to clear asexual parasites without clearing any gametocytes that may be present. This would allow the gametocytocidal activity of a second dose of cipargamin to be investigated, as well as the transmission of gametocytes to mosquitoes. Gametocytemia was monitored using quantitative reverse transcriptase PCR (qRT-PCR) targeting pfs25 mRNA, a transcript preferentially expressed in mature female gametocytes ([26]). Transcripts per milliliter of blood were converted to female gametocytes per milliliter of blood using a standard curve ([29]). All participants were to receive compulsory rescue treatment with artemether-lumefantrine ([…]; Novartis Pharmaceuticals Pty. Ltd., Macquarie Park, Australia), as well as a single 45-mg dose of primaquine ([…] Group, Sydney, Australia) to clear gametocytes, 21 days after cipargamin dosing or earlier if a second round of parasite regrowth occurred following piperaquine treatment. To monitor total parasitemia, blood samples were collected for 18S rRNA qPCR before inoculation, on day 3, twice daily on days 4 to 6, pretreatment on day 7, and 4, 8, 12, 16, 24, 30, and 36 h posttreatment, twice daily from day 9 to day 11, and every 1 to 3 days until day 35. Blood samples for gametocytemia measurements were collected on day 11, every 1 to 3 days between day 15 and day 29, and on day 35. […] Analyses were performed in R version 3.3.0. The PRR and parasite clearance half-life were estimated using the slope of the optimal fit for the log-linear relationship of the parasitemia decay as described previously ([27]).

P. falciparum = conditions: cited from earlier work
P. vivax = test system: P. vivax; parameters: method as in PMID 25075833; conditions: 30 mg per day for 3 days, P. vivax malaria patients; cited from earlier work
[2] = parameters: method as in PMID 25114127; conditions: cited from earlier work
Plasmodium falciparum = conditions: cited from earlier work
rodent malaria model = test system: rodent malaria model; parameters: method as in PMID 20813948; conditions: cited from earlier work
Plasmodium berghei = test system: Plasmodium berghei; parameters: method as in PMID 25114127, PMID 25487807; conditions: human PK data with preclinical PK/PD analysis; cited from earlier work
[3] = 10 mg single oral dose, 8 healthy subjects, IBSM

With `C[C@H]1Cc2c([nH]c3cc(Cl)c(F)cc23)[C@@]2(N1)C(=O)Nc1ccc(Cl)cc12` [cipargamin] the “time to observed reduction in parasitemia” value (P. falciparum 3D7; 10 mg single oral dose) was at most 24 h, the “log10 parasite reduction ratio over 48 h postdose (PRR48), cohort-specific” value (P. falciparum 3D7; [3]) was 3.63 and the “parasite clearance half-life, cohort-specific” value (P. falciparum 3D7; [3]) was 3.99 h. For the same compound, the “time of parasite regrowth after dosing” value (P. falciparum 3D7; 10 mg single oral dose, all 8 subjects) was 3 to 8 days, the “Log10PRR48 (95%CI)” value (P. falciparum 3D7; subject 1) was 4.22 (3.15, 5.29) and the “Parasite Clearance Half-Life (95%CI)” value (P. falciparum 3D7; subject 1) was 3.42 (2.73, 4.59) h. The “Log10PRR48 (95%CI)” value (P. falciparum 3D7; subject 2) was 5.84 (4.79, 6.90), the “Parasite Clearance Half-Life (95%CI)” value (P. falciparum 3D7; subject 2) was 2.47 (2.10, 3.02) h and the “Log10PRR48 (95%CI)” value (P. falciparum 3D7; subject 3) was 4.09 (3.45, 4.73). For the same compound, the “Parasite Clearance Half-Life (95%CI)” value (P. falciparum 3D7; subject 3) was 3.53 (3.05, 4.19) h, the “Log10PRR48 (95%CI)” value (P. falciparum 3D7; subject 4) was 2.18 (1.62, 2.73) and the “Parasite Clearance Half-Life (95%CI)” value (P. falciparum 3D7; subject 4) was 6.64 (5.30, 8.90) h. The “Log10PRR48 (95%CI)” value (P. falciparum 3D7; subject 5) was 4.23 (3.48, 4.98), the “Parasite Clearance Half-Life (95%CI)” value (P. falciparum 3D7; subject 5) was 3.42 (2.90, 4.15) h and the “Log10PRR48 (95%CI)” value (P. falciparum 3D7; subject 6) was 1.28 (0.85, 1.71). The “Parasite Clearance Half-Life (95%CI)” value (P. falciparum 3D7; subject 6) was 11.39 (8.47, 17.37) h, the “Log10PRR48 (95%CI)” value (P. falciparum 3D7; subject 7) was 4.12 (3.22, 5.03) and the “Parasite Clearance Half-Life (95%CI)” value (P. falciparum 3D7; subject 7) was 3.51 (2.87, 4.49) h. The “Log10PRR48 (95%CI)” value (P. falciparum 3D7; subject 8) was 4.63 (4.34, 4.92), the “Parasite Clearance Half-Life (95%CI)” value (P. falciparum 3D7; subject 8) was 3.12 (2.93, 3.33) h and the “drug exposure (AUC0–∞) in IBSM subjects, fold lower than in patients with naturally acquired malaria” value (clinical) was “around 3 fold”. For the same compound, the AUC(0-inf) (clinical; po) was 1950 ± 753 ng·h/mL, the “CL/F, mean ± SD (% CV)” value (clinical; po) was 5.72 ± 1.93 (33.7) liters/h and the Cmax (clinical; po) was 101 ± 18.3 ng/mL. The Tmax (clinical; po) was 2 h, the Vd/F (clinical; po) was 209 ± 54.5 L and the AUC(0-t) (clinical; po, AUC0–24 h, mean ± SD (% CV)) was 1010 ± 242 ng·h/mL. The AUC(0-t) (clinical; po, AUC0–last, mean ± SD (% CV)) was 1850 ± 690 ng·h/mL, the half-life (clinical; po, t1/2 (elimination half-life), mean ± SD (% CV)) was about 26 h and the “gametocyte development after treatment” value ([1]; 10 mg cipargamin, followed by piperaquine) was “Low gametocyte densities were detected in all subjects; also recorded: detected in all 8 subjects; also recorded: not sufficient to prevent gametocyte development”. The “gametocytemia at time of DMFA, geometric mean” value ([1]; 20 days after cipargamin dosing) was 439 gametocytes/ml, the “peak gametocytemia, geometric mean” value ([1]; after 10 mg cipargamin then 960 mg piperaquine, 8 subjects) was 976 female gametocytes/ml and the “time of peak gametocytemia after cipargamin dosing” value ([1]; all subjects, 24 days postinoculation) was “approximately 17 days”. The parasite clearance half-life (P. falciparum; 10 mg single dose, patients with P. falciparum malaria) was 4.35 h, the parasite clearance half-life (P. falciparum; 30 mg per day for 3 days, P. falciparum malaria patients) was 0.90 h and the parasite clearance half-life (P. falciparum; 30 mg single dose (highest tested), phase 2a) was 1.47 h. The “clearance of parasitemia in patients” value (P. falciparum; 3-day regimen of 30 mg daily, patients infected with P. falciparum or Plasmodium vivax, Thailand) was “demonstrated to clear parasitemia”, the “MIC estimated in patients” value (P. falciparum; patients with P. falciparum malaria, doses 10, 15, 20 and 30 mg) was 0.1 ng/mL (≈ 0.256 nM) and the parasite clearance half-life (P. vivax) was 0.95 h. For the same compound, the “AUC0–∞” value ([2]; 10 mg, healthy subjects, first-in-human study) was 1860 ng·h/mL, the LFT abnormalities ([2]; 72 healthy subjects, single doses up to 300 mg or up to 150 mg daily for 3 days) was “only one subject displayed mild LFT abnormalities” and the tolerability in humans ([2]; single dose up to 300 mg or up to 150 mg daily for 3 days) was “tolerated”. For the same compound, the “in vitro activity against P. falciparum stages” value (Plasmodium falciparum) was “active against both asexual and sexual stages”, the “inhibition of early- and late-stage gametocyte development in vitro” value (Plasmodium falciparum) was “potent inhibitor” and the “inhibition of oocyst development in vitro” value (Plasmodium falciparum) was “potent inhibition”. The “cure in rodent malaria model” value (rodent malaria model) was “single-dose cure was demonstrated” and the “daily dose predicted to be sufficient to clear parasitemia in malaria patients” value (Plasmodium berghei) was 30 mg.
